From patent US20130143913A1, “PROPHYLACTIC OR THERAPEUTIC AGENT FOR NON-ALCOHOLIC STEATOHEPATITIS” (KYORIN PHARMACEUTICAL CO., LTD., priority 2010, published 2013) come the findings set out here.

Assay [1] relates to fatty acid synthesis in the liver. Put plainly: Hepatic fatty acid synthesis from [1-14C]acetic acid in fasted/re-fed mice (fatty liver model). As to conditions: re-fed mice after 48 h fasting; ibudilast 10 and 100 mg/kg orally twice a day (FIG. 1); vs. vehicle. Format: in vivo, mice (male C57BI/6J). The source says:
In NAFLD, it is regarded that the increase of the fatty acid synthesis in the liver is an important factor involved in the fatty liver formation (Shinji, T., et al. 2005. J. Clin. Invest. 115: 1139-1142). Therefore, with reference to methods described in Delzenne et al. (Delzenne, N. M., et al., 1997, J. HepatoL, 26: 880-885) and Tsuchida et al. (Tsuchida. A., et al., 2004, J. Bio. Chem., 279: 30817-30822), effects of ibudilast on the fatty liver were examined by using re-fed mice in which the fatty acid synthesis in the liver is enhanced.
After 48 hours of fasting, male C57BI/6J mice at 8 weeks of age (CLEA Japan, Inc.) were refed for four hours. […]
The mice were refed with standard diet (CE-2, CLEA Japan, Inc.) after 30 minutes of the oral administration after fasting periods of 48 hours, and the mice were anatomized after refeeding periods of four hours. The content of triglyceride and biosynthesis of fatty acid in isolated liver were measured.
The fatty acid synthesis in the liver was measured using the fatty acid synthesis from the acetic acid. […]
After centrifugation, the chloroform layer was obtained as the lower layer. After the dried residue was dissolved to methanol, the scintillation cocktail was mixed with the obtained solution to measure radioactivity using liquid scintillation counter (Tri-Crab 1900CA, PerkinElmer). […]

Assay [2] concerns content of triglyceride in the liver. Put plainly: Hepatic triglyceride content in fasted/re-fed mice (fatty liver model). The conditions noted are these: re-fed mice after 48 h fasting; ibudilast 10 and 100 mg/kg orally twice a day (FIG. 2); vs. vehicle. Format: in vivo, mice (male C57BI/6J). The source says: In NAFLD, it is regarded that the increase of the fatty acid synthesis in the liver is an important factor involved in the fatty liver formation (Shinji, T., et al. 2005. J. Clin. Invest. 115: 1139-1142). Therefore, with reference to methods described in Delzenne et al. (Delzenne, N. M., et al., 1997, J. HepatoL, 26: 880-885) and Tsuchida et al. (Tsuchida. A., et al., 2004, J. Bio. Chem., 279: 30817-30822), effects of ibudilast on the fatty liver were examined by using re-fed mice in which the fatty acid synthesis in the liver is enhanced. After 48 hours of fasting, male C57BI/6J mice at 8 weeks of age (CLEA Japan, Inc.) were refed for four hours. To the vehicle group as a control, 2% (v/v) of PEG-60 hydrogenated castor oil (NIKKOL HCO-60, Nikko Chemicals Co., Ltd.) was orally administrated before fasting and after fasting periods of 12, 24, 36, and 48 hours. To ibudilast groups, […] or 100 mg/kg of ibudilast which was dissolved to 2% (v/v) of PEG-60 hydrogenated castor oil was orally administered before fasting and after fasting periods of 12, 24, 36, and 48 hours. […] The content of triglyceride and biosynthesis of fatty acid in isolated liver were measured. […] The dried extract was dissolved to 4% (v/v) of Triton X-100 and the triglyceride concentration was measured using Liquitech TG-II reagent (Roche Diagnostics K. K.). […]

In assay [3] the test system is triglyceride content in liver. Put plainly: Hepatic triglyceride content in ob/ob mice (obesity-related fatty liver model). As to conditions: ibudilast 10, 30 or 100 mg/kg orally twice a day for two weeks (FIG. 3), vs. vehicle. Format: in vivo, mice (male ob/ob, B6.V-Lep^ob/J). The procedure: Obesity and insulin resistance are regarded as a major pathologic basis in NAFLD (Kristina, M., et al. 2006, J. Clin Endocrinol Metab., 91: 4753-4761). Therefore, effect of ibudilast on fatty liver was evaluated using B6.V-Lep^ob/J mice (ob/ob; Charles River Laboratories Japan, Inc.), a model of obesity-related insulin resistance and fatty liver. Male ob/ob mice (Charles River Laboratories Japan, Inc.) at seven weeks of age were used. To the vehicle group as a control, 2% (v/v) of PEG-60 hydrogenated castor oil (NIKKOL HCO-60, Nikko Chemicals Co., Ltd.) was orally administrated twice a day. To ibudilast groups, 10, 30 or 100 mg/kg of ibudilast which was dissolved to 2% (v/v). of PEG-60 hydrogenated castor oil was orally administered twice a day. At 15 to 21 hours after the end of two weeks administration period, the mice were dissected in the fed state. The content of triglyceride in isolated liver was measured. Triglyceride was extracted from the liver by using improved method of Folch et al. (Folch, J., et al. 1957. J. Biol. Chem., 226: 497-509). Tissues were homogenized by using chloroform methanol mixture 2:1 (v/v). […] The dried extract was dissolved to 4% (v/v) of Triton X-100 and the triglyceride concentration was measured using Liquitech TG-II reagent (Roche Diagnostics K. K.). […]

The subject of a further assay is TNFα mRNA. Kind of assay: TNFα mRNA expression in liver of MCD diet-fed mice (quantitative real-time PCR). Format: in vivo, mice (male C57BI/6J). The conditions noted are these: ibudilast 10, 30 or 100 mg/kg orally twice a day for 14 days (FIG. 4), relative to 18S rRNA. As to the method: (§1) Effects of ibudilast on the hepatic inflammation and hepatic fibrosis were examined using methionine- and choline-deficient (MCD) diet-fed mice which induced hepatic inflammation and hepatic fibrosis involved in human pathological conditions like NASH. The MCD diet (Oriental Yeast Co., Ltd.) produced in accordance with the previous report by Okumura et al. (Okumura, K., et al. 2006, Hepatol. Res., 36: 217-228) was administered to male C57BI/6J mice (CLEA Japan, Inc.) at ten weeks of age for six weeks. […] Thereafter, TNFα, MCP-1, IL-1β, TGFβ, and col1a1 mRNA expressions in isolated liver were measured using the quantitative real-time PCR method. The 18S rRNA mRNA expression was used as an internal standard of the quantitative real-time PCR method and similarly measured. […] The quantitative real-time PCR was performed using TaqMan Fast Universal PCR Master Mix (Applied Biosystems) and Applied Biosystems 7500 Fast Real-Time PCR System (Applied Biosystems). […] Moreover, each operation relating to the quantitative real-time PCR was carried out in accordance with the manual attached to each reagent, kits and device. […]
A general note: In qPCR the cycle at which signal appears reflects the starting amount.

In the next assay the test system is MCP-1 mRNA. Put plainly: MCP-1 mRNA expression in liver of MCD diet-fed mice (quantitative real-time PCR). Format: in vivo, mice (male C57BI/6J). The conditions noted are these: ibudilast 10, 30 or 100 mg/kg orally twice a day for 14 days (FIG. 5), relative to 18S rRNA. The procedure:
as §1

The test system of a further assay is IL-1β mRNA. Kind of assay: IL-1β mRNA expression in liver of MCD diet-fed mice (quantitative real-time PCR). Format: in vivo, mice (male C57BI/6J). The conditions noted are these: ibudilast 10, 30 or 100 mg/kg orally twice a day for 14 days (FIG. 6), relative to 18S rRNA. As to the method: as §1
For a further assay, the system named is TGFβ mRNA. Put plainly: TGFβ mRNA expression in liver of MCD diet-fed mice (quantitative real-time PCR). Format: in vivo, mice (male C57BI/6J). The conditions noted are these: ibudilast 10, 30 or 100 mg/kg orally twice a day for 14 days (FIG. 7), relative to 18S rRNA. As to the method:
as §1

For a further assay, the system named is col1a1 mRNA. Kind of assay: col1a1 mRNA expression in liver of MCD diet-fed mice (quantitative real-time PCR). The format is in vivo, mice (male C57BI/6J). As to conditions: ibudilast 10, 30 or 100 mg/kg orally twice a day for 14 days (FIG. 8), relative to 18S rRNA. The procedure: as §1

Take `CC(C)C(=O)c1c(C(C)C)nn2ccccc12` [Ibudilast, ibudilast]: in assay [1], the “fatty acid synthesis in the liver” value is listed as “decreased”. In addition, the “content of triglyceride in the liver” value in assay [2] is listed as “significantly decreased”. For the same molecule, in assay [3], the “triglyceride content in liver” value is given as “significantly decreased”. For the same molecule, the “mRNA expression of TNFα in liver (index of hepatic inflammation)” value in the assay with TNFα mRNA was “decrease”. In addition, in the assay on MCP-1 mRNA, the “mRNA expression of MCP-1 in liver (index of hepatic inflammation)” value is “decrease”. For the same molecule, the “mRNA expression of IL-1β in liver (index of hepatic inflammation)” value in the assay on IL-1β mRNA is on record as “decrease”. The “mRNA expression of TGFβ in liver (index of hepatic fibrosis)” value in the assay with TGFβ mRNA is reported as “decrease”. Moreover, the “mRNA expression of collal in liver (index of hepatic fibrosis)” value in the assay with col1a1 mRNA is reported as “decrease”.
